Reference: patent publication US6063562A (priority 1995, dated 2000)
Like-named read-outs stand apart in the source and are kept apart here.

Columns and labels:
[1] = test system: AZT-resistant strain derived from wild-type HIV-1; conditions: read-out: IC50 (50% inhibitory concentration); second passage of the AZT-resistant progeny, MT-4 cells; cited from earlier work
wild-type HIV-1 = conditions: read-out: IC50 (50% inhibitory concentration), MT-4 cells, cited from earlier work
[2] = biological target: HIV-1 protease, wild type, expressed as part of truncated HIV-1 polyprotein (Human immunodeficiency virus type 1 group M subtype B, UniProt P04585); assay type: cell-based
Description: Plasmid pART-2 was digested with Bgl II and Eco RI to obtain a nucleotide sequence coding for a portion of the HIV-1 polyprotein (i.e., the HIV-1 protease protein, the HIV-1 reverse transcriptase protein and a portion of the HIV-1 integrase protein). The isolated 2.3 kb fragment was then inserted into the pTrcHisC plasmid (obtained from Invitrogen, San Diego, Calif.), which had previously been digested with the same restriction enzymes, to yield the plasmid pL124.23. The pL124.23 plasmid contains upstream sequences coding for a series of six histidine residues fused to a gene 10 segment, all of which are in frame with the inserted fragment. An enterokinase cleavage recognition site is also located between gene 10 and the truncated polyprotein. The inserted sequences, as well as the described upstream sequences are all under control of a T7 promoter. The T7 polymerase in the host cell (Top 10, Invitrogen) is inducible with IPTG.

Nc1nc(=O)n([C@@H]2CS[C@H](CO)O2)cc1F [FTC]
IC50 [1]: > 50 µM | IC50 (wild-type HIV-1; fourth passage of the wild-type progeny): > 50 µM | IC50 (wild-type HIV-1; passage 6 virus, tested at higher compound concentrations): > 250 µM

CC(C)(C)NC(=O)[C@@H]1CN(Cc2cccnc2)CCN1C[C@@H](O)C[C@@H](Cc1ccccc1)C(=O)N[C@H]1c2ccccc2C[C@H]1O [L-735,524]
processing of the polyprotein by HIV protease [2]: did not allow processing of the polyprotein
